# Laboratory results reported in patent publication US10709709B2, “Substituted carbonucleoside derivatives useful as anticancer agents” (Pfizer Inc., priority 2016, dated 2020).
# Target: PRMT5/MEP50 protein complex (Homo sapiens (Human), UniProt O14744)
# Assay: PRMT5 biochemical assay (3H-SAM methylation of H4(1-21) peptide, filter plate scintillation)
# Conditions: 10 nM PRMT5/MEP50 complex, 200 nM H4(1-21) peptide, 1 uM SAM, 25 minute incubation at room temperature
# Experimental: Biochemical Assay Methods
# Compounds were solubilized in DMSO and serially diluted, using 3-fold dilutions, into 100% DMSO at a concentration 50-fold greater than the desired assay concentration. Following dilution, 1 ul was added to an empty 96-well microtiter plate. PRMT5/MEP50 protein complex was combined with H4(1-21) peptide ([…]) in PRMT5 assay buffer (50 mM Tris pH 8.5, 50 mM NaCl, 5 mM MgCl2, 1 mM EDTA, 1 mM TCEP) and 44 ul was added to the microtiter plate containing compound. S-Adenosyl-L-methionine (SAM) was prepared by combining ^3H labelled SAM with unlabelled SAM in PRMT5 assay buffer such that the final SAM concentration was 10 uM and the specific activity was 0.2 uCi/ul. The reaction was initiated by adding 5 ul of SAM stock to the microtiter plate. The final reaction conditions were 10 nM PRMT5/MEP50 complex, 200 nM peptide and 1 uM SAM. Following a 25 minute incubation at room temperature, the reaction was stopped with the addition of 100 uL of 20% TCA. The 3H-peptide product was captured using a 96-well filter plate (MSIPN4B, Millipore) and washed 5 times with PBS buffer. Scintillation fluid (100 ul) was added to the dried filter plate and counted in a liquid scintillation counter. IC50 values were determined by fitting the data to the standard 4-parameter dose response equation using Pfizer proprietary software.
# Results for the biochemical assay of examples are summarized in Table 1, shown as IC50 values in μM.
# Sequence of PRMT5/MEP50 protein complex (O14744 other isoform, or with tags, fused parts or gaps): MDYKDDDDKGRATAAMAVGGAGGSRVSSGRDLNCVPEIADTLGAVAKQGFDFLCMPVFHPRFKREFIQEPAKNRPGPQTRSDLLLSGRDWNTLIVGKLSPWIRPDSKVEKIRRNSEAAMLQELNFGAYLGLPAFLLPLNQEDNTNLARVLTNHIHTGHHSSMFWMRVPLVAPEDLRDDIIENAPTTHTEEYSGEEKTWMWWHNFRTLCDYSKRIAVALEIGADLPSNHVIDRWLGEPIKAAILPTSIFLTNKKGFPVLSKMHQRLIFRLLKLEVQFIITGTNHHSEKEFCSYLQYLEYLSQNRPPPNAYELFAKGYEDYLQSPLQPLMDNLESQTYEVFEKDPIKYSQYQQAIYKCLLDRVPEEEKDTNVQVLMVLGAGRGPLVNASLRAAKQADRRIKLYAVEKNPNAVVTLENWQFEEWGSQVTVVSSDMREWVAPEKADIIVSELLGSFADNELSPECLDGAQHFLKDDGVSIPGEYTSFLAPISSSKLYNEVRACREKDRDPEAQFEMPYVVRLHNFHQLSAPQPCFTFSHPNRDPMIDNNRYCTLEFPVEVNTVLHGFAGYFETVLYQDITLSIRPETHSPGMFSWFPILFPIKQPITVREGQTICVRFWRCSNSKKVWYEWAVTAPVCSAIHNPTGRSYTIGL
# Sequence of PRMT5/MEP50 protein complex (Q9BQA1 whole entry partner): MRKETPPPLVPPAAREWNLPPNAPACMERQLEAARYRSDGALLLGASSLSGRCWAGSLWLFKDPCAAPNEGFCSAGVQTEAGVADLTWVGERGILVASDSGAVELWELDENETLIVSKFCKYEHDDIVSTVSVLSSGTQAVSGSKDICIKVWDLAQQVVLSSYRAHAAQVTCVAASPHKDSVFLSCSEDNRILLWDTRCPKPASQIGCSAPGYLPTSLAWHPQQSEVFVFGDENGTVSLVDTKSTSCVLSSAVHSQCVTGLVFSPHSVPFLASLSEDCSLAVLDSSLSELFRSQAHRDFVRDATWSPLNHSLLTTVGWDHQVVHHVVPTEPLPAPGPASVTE
row,Structure (SMILES),IC50 [nM]
1,"N#Cc1cccc2c(N[C@@H]3C[C@H](C(O)c4ccc(F)c(F)c4)[C@@H](O)[C@H]3O)ncnc12 (single isomer, unassigned) [Example 30, 4-({(1R;2S;3R;4R)-4-[(3;4-difluorophenyl)(hydroxy)methyl]-2;3-dihydroxycyclopentyl}amino)quinazoline-8-carbonitrile]",> 200000
2,"Cc1ncnc2c1ccn2[C@@H]1C[C@H](Oc2cccc3c2C(N)CCC3)[C@@H](O)[C@H]1O (single isomer, unassigned) [Example 187]",971
3,"Cc1ncnc2c1ccn2[C@@H]1C[C@H]([C@@H](O)c2ccc(F)c(F)c2)[C@@H](O)[C@H]1O [Example 4, (1S,2R,5R)-3-[(R)-(3,4-difluorophenyl) (hydroxy)methyl]-5-(4-methyl-7H-pyrrolo[2,3-d]pyrimidin-7-yl)cyclopentane-1,2-diol]",681
4,"Cc1ncnc2c1ccn2[C@@H]1C[C@H]([C@@H](O)c2ccc(F)c(Cl)c2)[C@@H](O)[C@H]1O [Example 6, (1S,2R,3R,5R)-3-[(R)-(3-chloro-4-fluorophenyl) (hydroxy)methyl]-5-(4-methyl-7H-pyrrolo[2,3-d]pyrimidin-7-yl)cyclopentane-1,2-diol]",423
5,Cc1ncnc2c1ccn2[C@@H]1C[C@H]([C@H](O)c2cccc(Cl)c2)[C@@H](O)[C@H]1O [Example 7],120
6,"Cc1ncnc2c1ccn2[C@@H]1C[C@H]([C@@H](O)c2cccc(Cl)c2)[C@@H](O)[C@H]1O [Example 8, (1S,2R,3R,5R)-3-[(R)-(3-chlorophenyl) (hydroxy)methyl]-5-(4-methyl-7H-pyrrolo[2,3-d]pyrimidin-7-yl)cyclopentane-1,2-diol]",3390
7,"Cc1ncnc2c1ccn2[C@@H]1C[C@H]([C@H](O)c2ccc(F)cc2)[C@@H](O)[C@H]1O [Example 9, (1S,2R,3R,5R)-3-[(S)-(4-fluorophenyl) (hydroxy)methyl]-5-(4-methyl-7H-pyrrolo[2,3-d]pyrimidin-7-yl)cyclopentane-1,2-diol]",60
8,"Cc1ncnc2c1ccn2[C@@H]1C[C@H]([C@@H](O)c2ccc(F)cc2)[C@@H](O)[C@H]1O [Example 10, (1S,2R,3R,5R)-3-[(R)-(4-fluorophenyl) (hydroxy)methyl]-5-(4-methyl-7H-pyrrolo[2,3-d]pyrimidin-7-yl)cyclopentane-1,2-diol]",941
9,"Cc1ncnc2c1ccn2[C@@H]1C[C@H]([C@@H](O)c2ccc(Cl)cc2)[C@@H](O)[C@H]1O [Example 12, (1S,2R,3R,5R)-3-[(R)-(4-chlorophenyl) (hydroxy)methyl]-5-(4-methyl-7H-pyrrolo[2,3-d]pyrimidin-7-yl)cyclopentane-1,2-diol]",478
10,"Cc1ncnc2c1ccn2[C@@H]1C[C@H]([C@@H](O)c2cc(F)c(F)c(F)c2)[C@@H](O)[C@H]1O [Example 14, (1S,2R,3R,5R)-3-[(R)-hydroxy(3,4,5-trifluorophenyl)methyl]-5-(4-methyl-7H-pyrrolo[2,3-d]pyrimidin-7-yl)cyclopentane-1,2-diol]",719
11,"Cc1ncnc2c1ccn2[C@@H]1C[C@H](C(C)(C)O)[C@@H](O)[C@H]1O [Example 18, (1S,2R,3S,5R)-3-(2-hydroxypropan-2-yl)-5-(4-methyl-7H-pyrrolo[2,3-d]pyrimidin-7-yl)cyclopentane-1,2-diol]",3700
12,"CN(c1ccncn1)[C@@H]1C[C@H]([C@H](O)c2ccc(F)c(F)c2)[C@@H](O)[C@H]1O [Example 31, (1S,2R,3R,5R)-3-[(S)-(3,4-difluorophenyl)(hydroxy)methyl]-5-[methyl(pyrimidin-4-yl)amino]cyclopentane-1,2-diol]",466
13,"Cc1nccc(N(C)[C@@H]2C[C@H]([C@H](O)c3ccc(F)c(F)c3)[C@@H](O)[C@H]2O)n1 [Example 35, (1S,2R,3R,5R)-3-[(S)-(3,4-difluorophenyl)(hydroxy)methyl]-5-[methyl(2-methylpyrimidin-4-yl)amino] cyclopentane-1,2-diol]",150

# More lines, now with the values ahead:
row,IC50 [nM],Structure (SMILES)
1,5740,"CO[C@H]1C[C@@H](n2ccc3c(C)ncnc32)[C@H](O)[C@@H]1O (racemic) [Example 59, (+/−)-(1S,2S,3S,5R)-3-methoxy-5-(4-methyl-7H-pyrrolo[2,3-d]pyrimidin-7-yl)cyclopentane-1,2-diol]"
2,217,"Cc1ncnc2c1ccn2[C@@H]1C[C@H](C(F)c2ccc(F)cc2)[C@@H](O)[C@H]1O (single isomer, unassigned) [Example 21]"
3,> 200000,"N#Cc1cccc2c(N[C@@H]3C[C@H](C(O)c4ccc(F)c(F)c4)[C@@H](O)[C@H]3O)ncnc12 (single isomer, unassigned) [Example 29, 4-({(1R;2S;3R;4R)-4-[(3;4-difluorophenyl)(hydroxy)methyl]-2;3-dihydroxycyclopentyl}amino)quinazoline-8-carbonitrile]"
4,6,"Cc1ncnc2c1ccn2[C@@H]1C[C@H](Oc2cccc3c2CNC(C)C3)[C@@H](O)[C@H]1O (single isomer, unassigned) [Example 185]"
5,604,"Cc1ncnc2c1ccn2[C@@H]1C[C@H](Oc2cccc3c2CC(N)CO3)[C@@H](O)[C@H]1O (single isomer, unassigned) [Example 189]"
6,510,"Cc1ncnc2c1ccn2[C@@H]1C[C@H]([C@@H](C)O)[C@@H](O)[C@H]1O [Example 1, (1S,2R,3R,5R)-3-((R)-1-hydroxyethyl)-5-(4-methyl-7H-pyrrolo[2,3-d]pyrimidin-7-yl)cyclopentane-1,2-diol]"
7,8380,"Cc1ncnc2c1ccn2[C@@H]1C[C@H]([C@H](C)O)[C@@H](O)[C@H]1O [Example 2, (1S,2R,3R,5R)-3-((S)-1-hydroxyethyl)-5-(4-methyl-7H-pyrrolo[2,3-d]pyrimidin-7-yl)cyclopentane-1,2-diol]"
8,> 200000,"Cc1cccc(CC(O)[C@H]2C[C@@H](n3ccc4c(C)ncnc43)[C@H](O)[C@@H]2O)n1 (stereo partly drawn) [Example 15, (1S,2R,3R,5R)-3-[1-hydroxy-2-(6-methylpyridin-2-yl)ethyl]-5-(4-methyl-7H-pyrrolo[2,3-d]pyrimidin-7-yl)cyclopentane-1,2-diol]"
9,2770,"Cc1ncnc2c1ccn2[C@@H]1C[C@H](C2(O)CC2)[C@@H](O)[C@H]1O [Example 17, (1S,2R,3S,5R)-3-(1-hydroxycyclopropyl)-5-(4-methyl-7H-pyrrolo[2,3-d]pyrimidin-7-yl)cyclopentane-1,2-diol]"
10,17100,"Cc1ncnc2c1ccn2[C@@H]1C[C@H]([C@@](C)(O)c2ccc(F)cc2)[C@@H](O)[C@H]1O [Example 20, (1S,2R,3S,5R)-3-[(1R)-1-(4-fluorophenyl)-1-hydroxyethyl]-5-(4-methyl-7H-pyrrolo[2,3-d]pyrimidin-7-yl)cyclopentane-1,2-diol]"
11,572,"Nc1ncnc2c1ccn2[C@@H]1C[C@H]([C@H](O)c2ccc(Cl)c(F)c2)[C@@H](O)[C@H]1O [Example 23, (1R,2S,3R,5R)-3-(4-amino-7H-pyrrolo[2,3-d]pyrimidin-7-yl)-5-((S)-(4-chloro-3-fluorophenyl)(hydroxy)methyl)cyclopentane-1,2-diol]"
12,71,"Nc1ncnc2c1ccn2[C@@H]1C[C@H]([C@@H](O)c2ccc(Cl)c(F)c2)[C@@H](O)[C@H]1O [Example 24, (1R,2S,3R,5R)-3-(4-amino-7H-pyrrolo[2,3-d]pyrimidin-7-yl)-5-((R)-(4-chloro-3-fluorophenyl)(hydroxy)methyl)cyclopentane-1,2-diol]"
13,704,"Nc1ncnc2c1c(F)cn2[C@@H]1C[C@H]([C@@H](O)c2ccc(F)cc2)[C@@H](O)[C@H]1O [Example 26, (1R,2S,3R,5R)-3-(4-amino-5-fluoro-7H-pyrrolo[2,3-d]pyrimidin-7-yl)-5-[(R)-(4-fluorophenyl)(hydroxy)methyl]cyclopentane-1,2-diol]"
14,449,"O[C@@H]1[C@H](O)[C@@H]([C@H](O)c2ccc(F)c(F)c2)C[C@H]1Nc1ncnc2[nH]ccc12 [Example 27, (1S,2R,3R,5R)-3-[(S)-(3,4-difluorophenyl)(hydroxy)methyl]-5-(7H-pyrrolo[2,3-d]pyrimidin-4-ylamino)cyclopentane-1,2-diol]"
15,5770,"O[C@@H]1[C@H](O)[C@@H]([C@@H](O)c2ccc(F)c(F)c2)C[C@H]1Nc1ncnc2[nH]ccc12 [Example 28, (1S,2R,3R,5R)-3-[(R)-(3,4-difluorophenyl)(hydroxy)methyl]-5-(7H-pyrrolo[2,3-d]pyrimidin-4-ylamino)cyclopentane-1,2-diol]"
16,3580,"Cc1cc(N(C)[C@@H]2C[C@H]([C@H](O)c3ccc(F)c(F)c3)[C@@H](O)[C@H]2O)ncn1 [Example 33, (1S,2R,3R,5R)-3-[(S)-(3,4-difluorophenyl)(hydroxy)methyl]-5-[methyl(6-methylpyrimidin-4-yl)amino] cyclopentane-1,2-diol]"
17,59500,"Cc1cc(N(C)[C@@H]2C[C@H]([C@@H](O)c3ccc(F)c(F)c3)[C@@H](O)[C@H]2O)ncn1 [Example 34, (1S,2R,3R,5R)-3-[(R)-(3,4-difluorophenyl)(hydroxy)methyl]-5-[methyl(6-methylpyrimidin-4-yl)amino] cyclopentane-1,2-diol]"
